Data on 24 molecules can be found in patent US7098340B2, “Benzyl sulfonamide derivatives” (Warner Lambert Company LLC, priority 2003, dated 2006).

In general, IC50 refers to the point on the concentration scale where inhibition reaches its midpoint. The low end stands for higher potency, the high end for lower potency.

In this assay the target is T1, androgen receptor (Homo sapiens, UniProt P10275).
T1 sequence (P10275 1-920 Q868H): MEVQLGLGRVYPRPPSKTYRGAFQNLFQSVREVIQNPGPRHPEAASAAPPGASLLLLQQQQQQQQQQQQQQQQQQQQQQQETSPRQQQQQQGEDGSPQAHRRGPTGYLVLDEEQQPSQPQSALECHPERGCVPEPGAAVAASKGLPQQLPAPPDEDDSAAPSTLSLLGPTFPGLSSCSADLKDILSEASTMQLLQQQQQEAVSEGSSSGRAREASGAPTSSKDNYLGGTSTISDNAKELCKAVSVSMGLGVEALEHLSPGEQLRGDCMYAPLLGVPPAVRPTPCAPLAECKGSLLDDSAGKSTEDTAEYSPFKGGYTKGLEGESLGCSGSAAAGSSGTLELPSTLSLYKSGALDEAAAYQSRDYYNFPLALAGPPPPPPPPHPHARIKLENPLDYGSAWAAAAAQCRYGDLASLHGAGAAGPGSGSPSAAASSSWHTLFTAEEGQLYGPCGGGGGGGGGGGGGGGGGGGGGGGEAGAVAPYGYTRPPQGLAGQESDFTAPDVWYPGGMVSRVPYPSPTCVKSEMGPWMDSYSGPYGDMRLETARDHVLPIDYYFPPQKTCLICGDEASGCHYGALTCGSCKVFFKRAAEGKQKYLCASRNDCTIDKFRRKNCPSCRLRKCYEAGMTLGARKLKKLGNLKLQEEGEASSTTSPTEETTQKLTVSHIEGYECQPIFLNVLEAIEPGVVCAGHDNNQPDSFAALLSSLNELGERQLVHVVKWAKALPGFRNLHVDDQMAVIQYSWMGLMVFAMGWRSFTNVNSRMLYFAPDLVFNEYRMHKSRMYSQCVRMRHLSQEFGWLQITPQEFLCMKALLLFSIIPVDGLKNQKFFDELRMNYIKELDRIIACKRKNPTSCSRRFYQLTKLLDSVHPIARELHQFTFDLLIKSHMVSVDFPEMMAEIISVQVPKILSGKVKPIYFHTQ
The assay is described as follows: AR Antagonist Cell Assay (MMTV-luciferase reporter, DHT-stimulated). The format is cell-based. The note with it: MDA-MB453-MMTV clone 54-19 cells; antagonism of 100 pM DHT, 17 hr, luciferase readout. The method, boiled down:
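MDA-MB453 cells stably carrying MMTV-ARE-firefly luciferase, in 1% charcoal-treated serum, preincubated 30 min with compound (10 uM or 1 uM) then stimulated with 100 pM DHT for 17 h at 37° C. Luminescence read; result as % inhibition of DHT fold induction.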
For orientation: Reporter assays use an easily measured gene product as a stand-in for the process of interest.
Molecule `O=c1cc(C(F)(F)F)c2cc(Cc3ccc(S(=O)(=O)N(Cc4ccccc4)Cc4ccccc4)cc3)ccc2o1` [Example 109, N,N-Dibenzyl-4-(2-oxo-4-trifluoromethyl-2H-chromen-6-ylmethyl)benzenesulfonamide] yielded an IC50 of 8.26 µM. The value for `O=c1cc(C(F)(F)F)c2cc(Cc3ccc(S(=O)(=O)NCCc4ccccn4)cc3)ccc2[nH]1` [Example 59, 4-(2-Oxo-4-trifluoromethyl-1,2-dihydroquinolin-6-ylmethyl)-N-(2-pyridin-2-ylethyl)-benzenesulfonamide] was 9.25 µM; that for `O=c1cc(C(F)(F)F)c2cc(Cc3ccc(S(=O)(=O)Nc4cccc(OCc5ccccc5)c4)cc3)ccc2[nH]1` [Example 44, N-(3-Benzyloxyphenyl)-4-(2-oxo-4-trifluoromethyl-1,2-dihydroquinolin-6-ylmethyl)-benzenesulfonamide] was 2.8 µM; that for `Cc1ccc(NS(=O)(=O)c2ccc(Cc3ccc4oc(=O)cc(C(F)(F)F)c4c3)cc2)cc1` [Example 116, 4-(2-Oxo-4-trifluoromethyl-2H-chromen-6-ylmethyl)-N-p-tolylbenzenesulfonamide] was 1.21 µM.

Turning to `COc1ccccc1NS(=O)(=O)c1ccc(Cc2ccc3oc(=O)cc(C(F)(F)F)c3c2)cc1` [Example 123, N-(2-Methoxyphenyl)-4-(2-oxo-4-trifluoromethyl-2H-chromen-6-ylmethyl)-benzenesulfonamide], the IC50 was 4.08 µM.

Take `O=c1cc(C(F)(F)F)c2cc(Cc3ccc(S(=O)(=O)NCc4ccccc4Sc4ccccc4CO)cc3)ccc2[nH]1` [Example 94, N-[2-(2-Hydroxymethyl-phenylsulfanyl)benzyl]-4-(2-oxo-4-trifluoromethyl-1,2-dihydroquinolin-6-ylmethyl)-benzenesulfonamide]: the IC50 is more than 10 µM. With `O=c1cc(C(F)(F)F)c2cc(Cc3ccc(S(=O)(=O)NCc4cccc(Cl)c4)cc3)ccc2o1` [Example 186, N-(3-Chlorobenzyl)-4-(2-oxo-4-trifluoromethyl-2H-chromen-6-ylmethyl)benzenesulfonamide] the figure was more than 10 µM; with `O=c1cc(C(F)(F)F)c2cc(Cc3ccc(S(=O)(=O)NCCOc4ccccc4)cc3)ccc2o1` [Example 181, 4-(2-Oxo-4-trifluoromethyl-2H-chromen-6-ylmethyl)-N-(2-phenoxyethyl)-benzenesulfonamide], 6.96 µM. The value for `O=c1cc(C(F)(F)F)c2cc(Cc3ccc(S(=O)(=O)NC4CCC(O)CC4)cc3)ccc2o1` (stereo not drawn) [Example 193, N-(4-Hydroxycyclohexyl)-4-(2-oxo-4-trifluoromethyl-2H-chromen-6-ylmethyl)benzenesulfonamide] was 9.11 µM. The value for `Cc1cccc(NS(=O)(=O)c2ccc(Cc3ccc4oc(=O)cc(C(F)(F)F)c4c3)cc2)c1` [Example 115, 4-(2-Oxo-4-trifluoromethyl-2H-chromen-6-ylmethyl)-N-m-tolylbenzenesulfonamide] was 2.05 µM; that for `O=c1cc(C(F)(F)F)c2cc(Cc3ccc(S(=O)(=O)NCc4ccc5c(c4)CCO5)cc3)ccc2o1` [Example 189, N-(2,3-Dihydrobenzofuran-5-ylmethyl)-4-(2-oxo-4-trifluoromethyl-2H-chromen-6-ylmethyl)benzenesulfonamide] was 2.51 µM. Turning to `CCCCN(CC)S(=O)(=O)c1ccc(Cc2ccc3oc(=O)cc(C(F)(F)F)c3c2)cc1` [Example 99, N-Butyl-N-ethyl-4-(2-oxo-4-trifluoromethyl-2H-chromen-6-ylmethyl)benzenesulfonamide], the IC50 was 4.15 µM. With `COc1ccccc1CCNS(=O)(=O)c1ccc(Cc2ccc3oc(=O)cc(C(F)(F)F)c3c2)cc1` [Example 190, N-[2-(2-Methoxyphenyl)ethyl]-4-(2-oxo-4-trifluoromethyl-2H-chromen-6-ylmethyl)benzenesulfonamide] the figure was 5.41 µM; with `CCc1cccc(NS(=O)(=O)c2ccc(Cc3ccc4[nH]c(=O)cc(C(F)(F)F)c4c3)cc2)c1` [Example 17, N-(3-Ethylphenyl)-4-(2-oxo-4-trifluoromethyl-1,2-dihydroquinolin-6-ylmethyl)benzenesulfonamide], more than 10 µM. In turn, `CCOC(=O)CC(NS(=O)(=O)c1ccc(Cc2ccc3[nH]c(=O)cc(C(F)(F)F)c3c2)cc1)c1ccccc1` (stereo not drawn) [Example 91, 3-[4-(2-Oxo-4-trifiuoromethyl-1,2-dihydroquinolin-6-ylmethyl)-benzenesulfonylamino]-3-phenylpropionic acid ethyl ester] showed an IC50 of more than 10 µM. The value for `CCCN(CCO)S(=O)(=O)c1ccc(Cc2ccc3oc(=O)cc(C(F)(F)F)c3c2)cc1` [Example 102, N-(2-Hydroxyethyl)-4-(2-oxo-4-trifluoromethyl-2H-chromen-6-ylmethyl)-N-propylbenzenesulfonamide] was 2.91 µM; that for `O=c1cc(C(F)(F)F)c2cc(Cc3ccc(S(=O)(=O)Nc4cccc(CO)c4)cc3)ccc2o1` [Example 122, N-(3-Hydroxymethylphenyl)-4-(2-oxo-4-trifluoromethyl-2H-chromen-6-ylmethyl)-benzenesulfonamide] was 1.83 µM; that for `O=c1cc(C(F)(F)F)c2cc(Cc3ccc(S(=O)(=O)N(CCO)C4CCCCC4)cc3)ccc2o1` [Example 95, N-Cyclohexyl-N-(2-hydroxyethyl)-4-(2-oxo-4-trifluoromethyl-2H-chromen-6-ylmethyl)benzenesulfonamide] was 1.03 µM. The value for `O=c1cc(C(F)(F)F)c2cc(Cc3ccc(S(=O)(=O)NCCc4c[nH]c5ccccc45)cc3)ccc2[nH]1` [Example 79, N-[2-(1H-Indol-3-yl)ethyl]-4-(2-oxo-4-trifluoromethyl-1,2-dihydroquinolin-6-ylmethyl)-benzenesulfonamide] was 10.3 µM.

In turn, `CC(C)N(C)S(=O)(=O)c1ccc(Cc2ccc3oc(=O)cc(C(F)(F)F)c3c2)cc1` [Example 101, N-Isopropyl-N-methyl-4-(2-oxo-4-trifluoromethyl-2H-chromen-6-ylmethyl)-benzenesulfonamide] showed an IC50 of 2.65 µM. As for `COc1ccc(OC)c(NS(=O)(=O)c2ccc(Cc3ccc4[nH]c(=O)cc(C(F)(F)F)c4c3)cc2)c1` [Example 33, N-(2,5-Dimethoxyphenyl)-4-(2-oxo-4-trifluoromethyl-1,2-dihydroquinolin-6-ylmethyl)-benzenesulfonamide], the IC50 is more than 10 µM. The value for `O=c1cc(C(F)(F)F)c2cc(Cc3ccc(S(=O)(=O)NCc4cccc(Cl)c4F)cc3)ccc2[nH]1` [Example 77, N-(3-Chloro-2-fluorobenzyl)-4-(2-oxo-4-trifluoromethyl-1,2-dihydroquinolin-6-ylmethyl)-benzenesulfonamide] was more than 10 µM; that for `CSc1n[nH]c(NS(=O)(=O)c2ccc(Cc3ccc4oc(=O)cc(C(F)(F)F)c4c3)cc2)c1C#N` [Example 138, N-(4-Cyano-5-methylsulfanyl-2H-pyrazol-3-yl)-4-(2-oxo-4-trifluoromethyl-2H-chromen-6-ylmethyl)benzenesulfonamide] was 1.9 µM; that for `COCCN(CCOC)S(=O)(=O)c1ccc(Cc2ccc3[nH]c(=O)cc(C(F)(F)F)c3c2)cc1` [Example 12, N,N-Bis(2-methoxyethyl)-4-(2-oxo-4-trifluoromethyl-1,2-dihydroquinolin-6-ylmethyl)benzenesulfonamide] was more than 10 µM.
